From article PMC12049818, “Identification of NUV-244 as a PNPLA3 I148M degrading small molecule” (iScience, 2025) come the findings set out here.

The target in the assay is T1, PNPLA3 I148M-tagRFP (Homo sapiens, UniProt Q9NST1, I148M).
T1 construct: host or cells: Huh7
T1 sequence (Q9NST1 1-481 I148M): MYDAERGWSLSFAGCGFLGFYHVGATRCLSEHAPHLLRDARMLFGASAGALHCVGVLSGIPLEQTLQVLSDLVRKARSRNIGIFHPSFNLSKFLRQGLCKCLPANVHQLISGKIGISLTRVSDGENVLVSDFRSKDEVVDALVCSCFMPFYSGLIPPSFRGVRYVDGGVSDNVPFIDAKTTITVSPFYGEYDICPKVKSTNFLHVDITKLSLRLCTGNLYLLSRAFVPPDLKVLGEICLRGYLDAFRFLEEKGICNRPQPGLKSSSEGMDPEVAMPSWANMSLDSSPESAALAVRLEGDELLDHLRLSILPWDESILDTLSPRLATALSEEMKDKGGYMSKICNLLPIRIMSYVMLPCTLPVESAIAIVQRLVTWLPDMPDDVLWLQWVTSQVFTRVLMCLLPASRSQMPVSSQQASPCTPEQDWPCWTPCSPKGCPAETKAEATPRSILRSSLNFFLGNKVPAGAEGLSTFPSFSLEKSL
In words: Time-lapse imaging of PNPLA3 I148M-tagRFP on lipid droplets in Huh7 cells. Type of assay: cell-based. The protocol: To evaluate the kinetics of NUV-244 mediated reduction and degradation of PNPLA3 I148M-tagRFP, we performed time-lapse studies to follow PNPLA3 I148M-tagRFP over time (Figures 5A and 5B). 1μM or 5μM NUV-244 leads to rapid onset of reduction of PNPLA3 I148M-tagRFP on lipid droplets with half maximum effect reached after approximately 2h. To evaluate if PNPLA3 I148M-tagRFP degradation is 26S proteasome dependent, 1μM Bortezomib was co-incubated with NUV-244. Proteasome inhibition prevents PNPLA3 I148M-tagRFP reduction from lipid droplets (Figures 5A and 5B). […] A recent paper identified the E3 ligase responsible for the turnover of endogenous PNPLA3, the ER associated E3 ligase BFAR.[18]
Huh7 cells expressing PNPLA3 I148M-tagRFP were seeded at 4000 cells/well in 30 μL media in 384-well imaging plates (Revvity, PhenoPlate) and stored in a 37°C incubator with 5% CO2 and 95% humidity overnight. Cells were then incubated with Bodipy diluted in growth medium (38nM final concentration) for 1h at 37°C with 5% CO2 and 95% humidity. Cells were treated with DMSO control, 1 μM or 5 μM NUV-244, with or without 1 μM Bortezomib or 5 μM MLN7243. Cells were imaged every 15 minutes over a 20-hour period using an Opera Phenix confocal spinning disc microscope system (Revvity) with a 20x water objective at 561 nm (tagRFP) and 488 nm (BODIPY). Images were analyzed using Harmony software. PNPLA3 I148M-tagRFP intensity on lipid droplets was quantified and compared between treatments.

On to `NS(=O)(=O)OC[C@H]1C[C@@H](Nc2ccnc3cc(-c4cccc(SC(F)(F)F)c4)nn23)[C@H](O)[C@@H]1O` [MLN7243], for which the “effect of co-treatment on NUV-244 induced decrease of PNPLA3 I148M-tagRFP on lipid droplets” value (5μM co-treatment with 1μM or 5μM NUV-244) was “rescue of degradation”.
For `CC(C)C[C@H](NC(=O)[C@H](Cc1ccccc1)NC(=O)c1cnccn1)B(O)O` [Bortezomib], for the setting “1μM co-treatment with 1μM or 5μM NUV-244”, the “effect of co-treatment on NUV-244 induced decrease of PNPLA3 I148M-tagRFP on lipid droplets” value is recorded as “rescue of degradation”.
